# Source: patent US8957093B2, “N-biphenylmethylindole modulators of PPARG” (The Scripps Research Institute, priority 2011, dated 2015)
# Like-named read-outs stand apart in the source and are kept apart here.
# Assays:
# GST-PPARG-LBD = GST-PPARG-LBD (Homo sapiens (Human), UniProt P37231); experiment: Lanthascreen PPARG competitive binding assay (Invitrogen, TR-FRET); conditions: NA = not active, inc = incomplete curve, read-out: IC50 (nM) Lantha
# Method in brief: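 Values are fold change in 520 nm/490 nm FRET ratio relative to a 2% DMSO no-ligand control, excitation 340 nm. Compound dilutions starting at 10 μM competed against 5 nM Fluormone Pan-PPAR Green for GST-PPARG-LBD bound by 5 nM Tb anti-GST antibody. Incubation 2 h in the dark in assay buffer C, triplicate wells.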
# [1] = target: PPARG (murine PPARg2 or full-length human PPARG, 3xPPRE-luciferase reporter) (Homo sapiens, UniProt P37231); experiment: Cell-based PPRE-luciferase transactivation assay in COS-1 cells
# [2] = test system: PPARG (murine PPARg2 or full-length human PPARG, 3xPPRE-luciferase reporter); experiment: as above; conditions: for % transactivation (PPRE): PPRE transactivation data, at 10 μM
# [3] = target: Rb protein (cdk5 substrate) (Homo sapiens (Human), UniProt Q00535); experiment: cdk5 phosphorylation of Rb protein in vitro (Western blot); type: biochemical
# Text: (§1) In order to develop a suitable ligand, we optimized compounds for (i) high binding affinity for PPARG, (ii) blocking the cdk5-mediated PPARG phosphorylation and (iii) lacking classical agonism. Classical agonism is defined here, as is standard in the nuclear receptor field, as an increased level of transcription through a tandem PPAR response element luciferase reporter (PPRE::Luc).
# differentiated fat cells = experiment: cdk5-mediated phosphorylation of PPARG in differentiated fat cells; type: cell-based
# Text: as §1
# pre-adipose cell lines = experiment: Fat cell differentiation (Oil Red O staining, adipogenic gene expression); type: cell-based; conditions: for fat cell differentiation / lipid accumulation: Oil Red O staining; for expression of aP2, C/EBPα and Glut4: genes linked to adipogenesis
# MC3T3-E1 cells = experiment: Mineralization of osteoblastic cells (Alizarin red S staining, osteoblast gene expression); type: cell-based, mouse; conditions: for mineralization (calcification): Alizarin red S staining
# Text: Moreover, the expression of genes involved in the differentiation of these cells was impaired (alkaline phosphatase, RANKL, type I collagen).
# [4] = test system: obese, insulin-resistant mice; experiment: Hyperinsulinemic-euglycemic clamp in obese mice; type: in vivo, mouse
# Text: The most accurate method for measuring changes in insulin sensitivity is the hyperinsulinemic-euglycemic clamp (DeFronzo et al., 1979). In this method, animals are exposed to an elevated concentration of insulin while the amount of glucose infused is adjusted in real time to maintain fixed, or clamped glycemia.
# ob/ob mouse = experiment: Leptin-deficient ob/ob mouse model; conditions: ob/ob mice; for insulin levels / fasting glucose levels: after five days of treatment; for fasting glucose levels: vehicle 110±13; for body weight: longer treatment (11 days)
# Protocol: A more severe model of obesity is the leptin-deficient ob/ob mouse. These animals are very obese and insulin-resistant, with substantial compensatory hyperinsulinemia. […] Functional analyses were performed at days 5 and 11 after the start of treatments.
# Longer treatments with these drugs allowed an assessment of certain side effects.
# RAW264.7 cells = experiment: Inflammatory cytokine production in LPS stimulated RAW264.7 cells; type: cell-based
# [5] = Pharmacokinetic properties; conditions: in vivo
# [6] = test system: obese, insulin-resistant mice; experiment: Wild-type mice fed a calorie dense diet high in sugar and fat (obese, insulin-resistant)
# [7] = Lanthascreen competitive binding
# [8] = PPRE-luciferase, COS-1 cells, NA = not active, read-out: EC50 (nM) PPRE
# [9] = injected twice daily for 5 days
# Sequence of GST-PPARG-LBD (P37231 238-503): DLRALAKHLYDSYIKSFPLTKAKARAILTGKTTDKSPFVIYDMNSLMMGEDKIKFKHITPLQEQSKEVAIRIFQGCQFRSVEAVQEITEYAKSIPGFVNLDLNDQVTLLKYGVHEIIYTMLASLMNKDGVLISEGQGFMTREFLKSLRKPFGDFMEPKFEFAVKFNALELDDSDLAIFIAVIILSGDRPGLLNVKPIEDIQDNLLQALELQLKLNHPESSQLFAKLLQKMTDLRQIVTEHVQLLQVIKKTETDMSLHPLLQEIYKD
# Sequence of PPARG (murine PPARg2 or full-length human PPARG, 3xPPRE-luciferase reporter) (Homo sapiens, UniProt P37231) (P37231 whole entry, looked up): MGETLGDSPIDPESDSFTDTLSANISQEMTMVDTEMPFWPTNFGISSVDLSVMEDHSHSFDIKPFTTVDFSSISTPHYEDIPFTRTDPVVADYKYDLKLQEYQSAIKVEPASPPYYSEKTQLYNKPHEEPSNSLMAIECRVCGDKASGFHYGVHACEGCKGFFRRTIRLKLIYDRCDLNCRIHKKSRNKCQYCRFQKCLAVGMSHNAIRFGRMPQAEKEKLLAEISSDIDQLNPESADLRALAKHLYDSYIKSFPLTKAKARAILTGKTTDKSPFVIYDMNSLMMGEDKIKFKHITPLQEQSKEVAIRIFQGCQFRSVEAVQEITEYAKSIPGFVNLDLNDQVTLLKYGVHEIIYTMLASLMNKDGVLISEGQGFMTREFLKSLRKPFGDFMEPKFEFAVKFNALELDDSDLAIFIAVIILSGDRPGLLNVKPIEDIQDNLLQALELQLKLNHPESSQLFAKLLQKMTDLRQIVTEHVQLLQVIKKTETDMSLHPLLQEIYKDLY
smiles,measurement,setting,value
"Cc1c(C)n(Cc2ccc(-c3ccccc3C(=O)O)cc2)c2ccc(C(=O)N[C@H]3COc4ccccc4C3)cc12 [Example 249, (R)-4′-((5-(chroman-3-ylcarbamoyl)-2,3-dimethyl-1H-indol-1-yl)methyl)-[1,1′-biphenyl]-2-carboxylic acid]",IC50,GST-PPARG-LBD; [7],22 nM
same,EC50,[1]; [8],80 nM
same,PPRE transactivation (% in parentheses),[2]; rosiglitazone = 100%,(1%)
"Cc1c(C)n(Cc2ccc(-c3ccccc3C(=O)O)cc2)c2ccc(C(=O)N[C@@H]3C[C@H]3c3ccccc3)cc12 [Example 294, 4′-((2,3-Dimethyl-5-(((1R,2S)-2-phenylcyclopropyl)carbamoyl)-1H-indol-1-yl)methyl)-[1,1′-biphenyl]-2-carboxylic acid]",IC50,GST-PPARG-LBD; Lanthascreen PPARG competitive binding,22 nM
same,EC50,"[1]; PPRE transactivation data, read-out: PPRE EC50",517 nM
same,% transactivation (PPRE),[2],(28%)
Cc1c(C)n(Cc2ccc(-c3ccccc3C(=O)O)cc2)c2ccc(C(=O)N[C@@H](C)c3ccc([N+](=O)[O-])cc3)cc12 [SR1664],transcriptional agonism on tandem PPRE::Luc reporter,[2]; compared to rosiglitazone or MRL24,[…]
same,effect on cdk5 phosphorylation of the Rb protein,[3],no effect
same,blocking cdk5-mediated phosphorylation of PPARG in differentiated fat cells,differentiated fat cells,effective at blocking
same,fat cell differentiation / lipid accumulation,pre-adipose cell lines,did not stimulate increased lipid accumulation or changes in morphology
same,"expression of aP2, C/EBPα and Glut4",pre-adipose cell lines,little or no change
same,"expression of osteoblast differentiation genes (alkaline phosphatase, RANKL, type I collagen)",MC3T3-E1 cells,did not affect
same,mineralization (calcification),MC3T3-E1 cells,did not affect
same,plasma FFA,[4]; basal and clamped conditions,reduction
same,glucose uptake in the adipose tissue,[4]; clamp,significantly enhanced
same,suppression of endogenous hepatic glucose production (EGP),[4]; clamp,increased
same,whole body glucose utilization,[4]; clamp,not increased
same,glucose infusion rate (GIR) needed to maintain euglycemia,[4]; versus vehicle alone,significantly greater
same,glucose tolerance test,ob/ob mouse,markedly improved
same,insulin levels,ob/ob mouse,substantially reduced
same,fasting glucose levels,ob/ob mouse,90 ± 12 mg/dL
same,body fat / adiposity by MRI,ob/ob mouse; longer treatment,no decrease in the hematocrit or change in body adiposity
same,hematocrit (fluid retention),ob/ob mouse; longer treatment,no decrease
same,body weight,ob/ob mouse,did not cause the weight gain
same,production of inflammatory cytokines,RAW264.7 cells,inhibition of production of inflammatory cytokines
same,pharmacokinetic properties,[5],adequate
same,body weight compared to vehicle treated mice,[6]; [9],without significant differences
same,cdk5-mediated phosphorylation of PPARG at serine 273 in adipose tissue,[6]; [9],dose-dependent decrease
same,fasting insulin levels,[6]; [9],significant reduction
same,glucose levels,[6]; [9],trend toward lowered (and normalized) glucose levels
same,insulin resistance as computed by HOMA-IR,[6]; [9],clear and dose-dependent improvement
same,expression of adiponectin and adipsin,"[6]; mouse, in vivo",induced
"Cc1c(C)n(Cc2ccc(-c3ccccc3C(=O)O)cc2)c2ccc(C(=O)NCc3ccc(Cl)cc3)cc12 [compound 14, 4′-((5-(4-Chlorobenzylcarbamoyl)-2,3-dimethyl-1H-indol-1-yl)methyl)biphenyl-2-carboxylic acid]",IC50,GST-PPARG-LBD; [7],4 nM
same,EC50,[2]; [8],70 nM
same,PPRE transactivation (% in parentheses),[2]; rosiglitazone = 100%,(21%)
"COC(=O)c1ccc(CNC(=O)c2ccc3c(c2)c(C)c(C)n3Cc2ccc(-c3ccccc3C(=O)O)cc2)cc1 [compound 16, 4′-((5-(4-(Methoxycarbonyl)benzylcarbamoyl)-2,3-dimethyl-1H-indol-1-yl)methyl)biphenyl-2-carboxylic acid]",IC50,GST-PPARG-LBD; [7],2 nM
same,EC50,[2]; [8],59 nM
same,PPRE transactivation (% in parentheses),[2]; rosiglitazone = 100%,(23%)
"Cc1c(C)n(Cc2ccc(-c3ccccc3C(=O)O)cc2)c2ccc(C(=O)NCc3ccc(S(N)(=O)=O)cc3)cc12 [compound 17, 4′-((2,3-Dimethyl-5-(4-sulfamoylbenzylcarbamoyl)-1H-indol-1-yl)methyl)biphenyl-2-carboxylic acid]",IC50,GST-PPARG-LBD; [7],300 nM
same,PPRE transactivation (% in parentheses),[2]; rosiglitazone = 100%,(0%)
"COc1ccc(CNC(=O)c2ccc3c(c2)c(C)c(C)n3Cc2ccc(-c3ccccc3C(=O)O)cc2)c(OC)c1 [compound 20, 4′-((5-(2,4-Dimethoxybenzylcarbamoyl)-2,3-dimethyl-1H-indol-1-yl)methyl)biphenyl-2-carboxylic acid]",IC50,GST-PPARG-LBD; [7],16 nM
same,PPRE transactivation (% in parentheses),[2]; rosiglitazone = 100%,(0%)
"COc1cccc([C@H](C)NC(=O)c2ccc3c(c2)c(C)c(C)n3Cc2ccc(-c3ccccc3C(=O)O)cc2)c1 [compound 21, (S)-4′-((5-(1-(3-Methoxyphenyl)ethylcarbamoyl)-2,3-dimethyl-1H-indol-1-yl)methyl)biphenyl-2-carboxylic acid]",IC50,GST-PPARG-LBD; [7],13 nM
same,EC50,[2]; [8],46 nM
same,PPRE transactivation (% in parentheses),[2]; rosiglitazone = 100%,(12%)
"COc1ccc(CNC(=O)c2ccc3c(c2)c(C)c(C)n3Cc2ccc(-c3ccccc3C(=O)O)cc2)cc1OC [compound 24, 4′-((5-(3,4-Dimethoxybenzylcarbamoyl)-2,3-dimethyl-1H-indol-1-yl)methyl)biphenyl-2-carboxylic acid]",IC50,GST-PPARG-LBD; [7],125 nM
same,PPRE transactivation (% in parentheses),[2]; rosiglitazone = 100%,(0%)
"Cc1c(C)n(Cc2ccc(-c3ccccc3C(=O)O)cc2)c2ccc(C(=O)NC(C)(C)c3ccccc3)cc12 [compound 25, 4′-((2,3-Dimethyl-5-((2-phenylpropan-2-yl)carbamoyl)-1H-indol-1-yl)methyl)-[1,1′-biphenyl]-2-carboxylic acid]",IC50,GST-PPARG-LBD; [7],0.5 nM
same,EC50,[2]; [8],2.5 nM
same,PPRE transactivation (% in parentheses),[2]; rosiglitazone = 100%,(15%)
"Cc1c(C)n(Cc2ccc(-c3ccccc3C(=O)O)cc2)c2ccc(C(=O)N[C@@H](C)c3ccc(Cl)cc3)cc12 [compound 27, (S)-4′-((5-((1-(4-Chlorophenyl)ethyl)carbamoyl)-2,3-dimethyl-1H-indol-1-yl)methyl)-[1,1′-biphenyl]-2-carboxylic acid]",IC50,GST-PPARG-LBD; [7],53 nM
same,EC50,[2]; [8],33 nM
same,PPRE transactivation (% in parentheses),[2]; rosiglitazone = 100%,(6%)
"Cc1c(C)n(Cc2ccc(-c3ccccc3C(=O)O)cc2)c2ccc(C(=O)N[C@@H](C)c3cccc(Br)c3)cc12 [compound 30, (S)-4′-((5-((1-(3-Bromophenyl)ethyl)carbamoyl)-2,3-dimethyl-1H-indol-1-yl)methyl)-[1,1′-biphenyl]-2-carboxylic acid]",IC50,GST-PPARG-LBD; [7],58 nM
same,PPRE transactivation (% in parentheses),[2],(18%)
same,EC50,[2]; read-out: EC50 (nM) PPRE,20 nM
"CN(CCOc1ccc(CC2SC(=O)NC2=O)cc1)c1ccccn1 (centres unmarked) [rosiglitazone, reference compound]",activation of the PPRE reporter,[2]; COS-1 cells,[…]
same,effect on cdk5 phosphorylation of the Rb protein,[3],no effect
same,fat cell differentiation / lipid accumulation,pre-adipose cell lines,potently stimulated fat cell differentiation
same,"expression of aP2, C/EBPα and Glut4",pre-adipose cell lines,increased expression
same,"expression of osteoblast differentiation genes (alkaline phosphatase, RANKL, type I collagen)",MC3T3-E1 cells,impaired
same,mineralization (calcification),MC3T3-E1 cells,reduced the mineralization
same,glucose tolerance test,ob/ob mouse,markedly improved
same,insulin levels,ob/ob mouse,substantially reduced
same,fasting glucose levels,ob/ob mouse,88 ± 13 mg/dL
same,body fat / adiposity by MRI,ob/ob mouse; longer treatment,increase in body fat
same,hematocrit (fluid retention),ob/ob mouse; longer treatment,characteristic decrease
same,body weight,ob/ob mouse,increase in body weight
same,production of inflammatory cytokines,RAW264.7 cells,inhibition of production of inflammatory cytokines
